Tested on: HOP-62 multicell spheroids with HUVEC/MSC, viability
Assay: Anticancer human tumor HOP-62 cell line growth inhibition [KRAS2];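 note: viability read after a week of compound exposure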;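 for viability, T/C: 100% = DMSO vehicle-treated spheroids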
Conditions: for IC50: curve of first compound; for viability, T/C: stronger effect = lower value
Summary of the method: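 Combination screen of spheroid viability in tumor-cell co-cultures with endothelial (HUVEC) and mesenchymal stem cell stroma. Each agent was tested in half-log dilutions, topping at clinical Cmax or at 10 microM without a known Cmax.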

[1] = second compound 0.1 µM, first compound 0.0316 µM
[2] = second compound 0.1 µM, first compound 0.1 µM
[3] = second compound 0.1 µM, first compound 0.316 µM
[4] = second compound 0.1 µM, first compound 1 µM
[5] = second compound 0.1 µM, first compound 3.16 µM
[6] = second compound 0.316 µM, first compound 0.0316 µM
[7] = second compound 0.316 µM, first compound 0.1 µM
[8] = second compound 0.316 µM, first compound 0.316 µM
[9] = second compound 0.316 µM, first compound 1 µM
[10] = second compound 0.316 µM, first compound 3.16 µM
[11] = second compound 1 µM, first compound 0.0316 µM
[12] = second compound 1 µM, first compound 0.1 µM
[13] = second compound 1 µM, first compound 0.316 µM
[14] = second compound 1 µM, first compound 1 µM
[15] = second compound 1 µM, first compound 3.16 µM
[16] = second compound 3.16 µM, first compound 0.0316 µM
[17] = second compound 3.16 µM, first compound 0.1 µM
[18] = second compound 3.16 µM, first compound 0.316 µM
[19] = second compound 3.16 µM, first compound 1 µM
[20] = second compound 3.16 µM, first compound 3.16 µM
[21] = second compound 0.1 µM, first compound 10 µM
[22] = second compound 0.316 µM, first compound 10 µM
[23] = second compound 1 µM, first compound 10 µM
[24] = second compound 3.16 µM, first compound 10 µM
[25] = second compound 10 µM, first compound 0.0316 µM
[26] = second compound 10 µM, first compound 0.1 µM
[27] = second compound 10 µM, first compound 0.316 µM
[28] = second compound 10 µM, first compound 1 µM
[29] = second compound 10 µM, first compound 3.16 µM
[30] = second compound 10 µM, first compound 10 µM

CC1COCCN1c1cc(-c2ccnn2C)c2ccnc(-c3ccn[nH]3)c2n1 (stereo not given) + C=CC(=O)N1CCN(c2nc(OCC3CCCN3C)nc3c2CCN(c2cccc4cccc(C)c24)C3)CC1CC#N showed an IC50 (second compound 0.0316 µM) of 39.9 nM, an IC50 (second compound 0.1 µM) of 30.9 nM and an IC50 (second compound 0.316 µM) of 12.2 nM. The IC50 (second compound 1 µM) was < 10 nM, the IC50 (second compound 3.16 µM) was < 10 nM and the viability, T/C (second compound 0.0316 µM, first compound 0.01 µM) was 94.9%. For the same molecule, the viability, T/C (second compound 0.0316 µM, first compound 0.0316 µM) was 55.4%, the viability, T/C (second compound 0.0316 µM, first compound 0.1 µM) was 28.6% and the viability, T/C (second compound 0.0316 µM, first compound 0.316 µM) was 17.6%. The viability, T/C (second compound 0.0316 µM, first compound 1 µM) was 14%, the viability, T/C (second compound 0.0316 µM, first compound 3.16 µM) was 12.8% and the viability, T/C (second compound 0.1 µM, first compound 0.01 µM) was 79.4%. It also gave a viability, T/C [1] of 49.3%, a viability, T/C [2] of 22.7% and a viability, T/C [3] of 12%. The viability, T/C [4] was 11.7%, the viability, T/C [5] was 10% and the viability, T/C (second compound 0.316 µM, first compound 0.01 µM) was 54%. For the same molecule, the viability, T/C [6] was 30.3%, the viability, T/C [7] was 19.4% and the viability, T/C [8] was 10.9%. It also gave a viability, T/C [9] of 9.7%, a viability, T/C [10] of 7.82% and a viability, T/C (second compound 1 µM, first compound 0.01 µM) of 27.2%. The viability, T/C [11] was 18.6%, the viability, T/C [12] was 9.29% and the viability, T/C [13] was 8.75%. The viability, T/C [14] was 8.51%, the viability, T/C [15] was 7.02% and the viability, T/C (second compound 3.16 µM, first compound 0.01 µM) was 2.88%. It also gave a viability, T/C [16] of 1.59%, a viability, T/C [17] of 0.93% and a viability, T/C [18] of 0.21%. For the same molecule, the viability, T/C [19] was 0.17% and the viability, T/C [20] was 3.92%.
In the case of CC1OCC2(CCN(c3cnc(Sc4ccnc(N)c4Cl)c(N)n3)CC2)C1N (stereo not given) + C=CC(=O)N1CCN(c2nc(=O)n(-c3c(C)ccnc3C(C)C)c3nc(-c4c(O)cccc4F)c(F)cc23)C(C)C1, the IC50 (second compound 0.1 µM) is reported as < 31.6 nM, the IC50 (second compound 0.316 µM) is reported as 62.3 nM and the IC50 (second compound 1 µM) is reported as 90.5 nM. For the same molecule, the IC50 (second compound 3.16 µM) was 134 nM, the IC50 (second compound 10 µM) was < 31.6 nM and the viability, T/C [1] was 47.7%. For the same molecule, the viability, T/C [2] was 39.1%, the viability, T/C [3] was 26.5% and the viability, T/C [4] was 16.3%. The viability, T/C [5] was 12.5%, the viability, T/C [21] was 13.3% and the viability, T/C [6] was 63.7%. For the same molecule, the viability, T/C [7] was 39.8%, the viability, T/C [8] was 28.4% and the viability, T/C [9] was 19.2%. It also gave a viability, T/C [10] of 15.6%, a viability, T/C [22] of 13.6% and a viability, T/C [11] of 67.5%. For the same molecule, the viability, T/C [12] was 47%, the viability, T/C [13] was 36.9% and the viability, T/C [14] was 27.4%. The viability, T/C [15] was 18.2%, the viability, T/C [23] was 21.5% and the viability, T/C [16] was 61%. It also gave a viability, T/C [17] of 51.7%, a viability, T/C [18] of 42.5% and a viability, T/C [19] of 30.1%. The viability, T/C [20] was 24.1%, the viability, T/C [24] was 24.9% and the viability, T/C [25] was 44.6%. The viability, T/C [26] was 40.7%, the viability, T/C [27] was 30.1% and the viability, T/C [28] was 26.2%. The viability, T/C [29] was 25.8% and the viability, T/C [30] was 23.2%.
With COC(=O)c1ccc2c(C(=Nc3ccc(N(C)C(=O)CN4CCN(C)CC4)cc3)c3ccccc3)c(O)[nH]c2c1 + CC1OCC2(CCN(c3cnc(Sc4ccnc(N)c4Cl)c(N)n3)CC2)C1N the IC50 (second compound 0.1 µM) was 179 nM, the IC50 (second compound 0.316 µM) was 105 nM and the IC50 (second compound 1 µM) was < 31.6 nM. The IC50 (second compound 3.16 µM) was < 31.6 nM, the IC50 (second compound 10 µM) was < 31.6 nM and the viability, T/C [1] was 75.1%. For the same molecule, the viability, T/C [2] was 57.4%, the viability, T/C [3] was 43.7% and the viability, T/C [4] was 29.2%. It also gave a viability, T/C [5] of 25.5%, a viability, T/C [21] of 22.7% and a viability, T/C [6] of 53.9%. It also gave a viability, T/C [7] of 50.9%, a viability, T/C [8] of 29.4% and a viability, T/C [9] of 23.6%. It also gave a viability, T/C [10] of 25.1%, a viability, T/C [22] of 19.5% and a viability, T/C [11] of 38.5%. For the same molecule, the viability, T/C [12] was 30%, the viability, T/C [13] was 24.1% and the viability, T/C [14] was 20.2%. It also gave a viability, T/C [15] of 21.6%, a viability, T/C [23] of 17.4% and a viability, T/C [16] of 27%. For the same molecule, the viability, T/C [17] was 21.7%, the viability, T/C [18] was 18.5% and the viability, T/C [19] was 18.4%. For the same molecule, the viability, T/C [20] was 21.2%, the viability, T/C [24] was 14.3% and the viability, T/C [25] was 33.5%. It also gave a viability, T/C [26] of 21.3%, a viability, T/C [27] of 27.5% and a viability, T/C [28] of 20.4%. For the same molecule, the viability, T/C [29] was 16.9% and the viability, T/C [30] was 11.2%.

From PubChem BioAssay AID1963858 (Molecular Pharmacology Branch, DTP, NCI, 2024)
